Reference: US20150164895A1, “DETERMINING SENSITIVITY OF CELLS TO B-RAF INHIBITOR TREATMENT BY DETECTING KRAS MUTATION AND RTK EXPRESSION LEVELS” (GENENTECH, INC., priority 2009, published 2015)

What was measured:
CX-1 cells = experiment: Combination study of RAF inhibitor and Tarceva in colon tumor lines; format: cell-based; conditions: Tarceva administered together with RAF inhibitor; CX-1 (high EGFR)
Description: FIGS. 32A-C depict combination studies of RAF inhibitor and EGFR inhibitor (Tarceva) in colon tumor lines with different levels of EGFR expression.
In FIG. 32C, the effects of combination treatment of CX-1 cells with either RAF inhibitor alone, Tarceva alone or combination of RAF inhibitor and Tarceva are shown. Neither RAF inhibitor alone nor Tarceva alone suppress proliferation as effectively as the combination. Both inhibitors show good synergy when administered together to CX-1 cells.

B-RAFV600E cells = experiment: Cellular proliferation of B-RAFV600E cells in presence of EGF, single agents and combinations; format: cell-based; conditions: in combination with RAF inhibitor; 20 ng/ml EGF in the media
Procedure: (A) Cells were treated with […] compound in serum free media for 1 hour. For stimulation 20 ng/ml EGF was added for 5 min before cells were lysed. Lysates were transferred to an MSD plate where phospho- and total MEK levels were measured. […] Cells were dosed with indicated inhibitors, either alone or in combination in the presence of 20 ng/ml EGF in the media.

[1] = system: HT-29 BRAF V600E human colorectal carcinoma xenografts; experiment: HT-29 xenograft combination efficacy; format: in vivo, NCR nude (Taconic) mice; conditions: RAF inh a and Tarceva given in combination
Procedure: (§1) In FIG. 34A, RAF inh a was given at 100 mg/kg with increasing doses of Tarceva. In FIG. 34B, Tarceva was given to all animals with increasing concentrations of RAF inh a. […] In FIG. 34C, lysates from tumors treated with the indicated doses of inhibitors in FIGS. 34A and B were analyzed for phospho-ERK (pERK) levels by western blot.

[2] = system: phospho-ERK (pERK) levels in HT-29 tumors; experiment: phospho-ERK western blot of HT-29 tumor lysates; format: in vivo; conditions: RAF inhibitor a and Tarceva co-administered in mice
Procedure: as §1

[3] = system: Venus-C-RAF / CFP-K-RAS in HEK293T cells; experiment: C-RAF plasma membrane translocation, live cell confocal imaging; format: cell-based; set-up: dose or concentration left out as unconfirmed
Description: Aliquots of the membrane and cytosolic fractions were immunoblotted with the indicated antibodies. (B) HEK293T cells were transiently transfected with Venus-C-RAF (green), CFP-K-RAS (red) and mCherry-H2B (blue).

[4] = system: pERK in BRAF V600E cells expressing EGFR; experiment: pERK MSD assay, basal and EGF-stimulated; format: cell-based; conditions: serum starved, -EGF or +EGF
Procedure: (A) Table of genotype and EGFR levels among lines tested. (B) Measurement of basal and stimulated pERK levels: cells were treated with […] compound in serum free media for 1 hour. For stimulation 20 ng/ml EGF was added for 5 min before cells were lysed. Lysates were transferred to an MSD plate where phospho- and total ERK levels were measured. (C) pERK IC50 data are plotted for the two Raf inhibitors (CHR-265, 1-methyl-5-[[2-[5-(trifluoromethyl)-1H-imidazol-2-yl]-4-pyridinyl]oxy]-N-[4-(trifluoromethyl)phenyl]-1H-Benzimidazol-2-amine and GDC-0879) under basal and EGF-stimulated conditions.
FIG. 29 summarizes certain RAF inhibitor (GDC-0879, PLX-4720 and “Raf inh a” which is 2,6-difluoro-N-(3-methoxy-1H-pyrazolo[3,4-b]pyridin-5-yl)-3-(propylsulfonamido)benzamide) potencies for blocking cellular pERK induction in response to EGF stimulation.

| SMILES | resistance of cellular proliferation to RAF inhibitors under EGF (B-RAFV600E cells) | antitumor efficacy in combination [1] | phospho-ERK levels in the tumors [2] | blocking wildtype RAF signaling / selectivity (pERK induction in response to EGF) [4] | further results |
| --- | --- | --- | --- | --- | --- |
| C#Cc1cccc(Nc2ncnc3cc(OCCOC)c(OCCOC)cc23)c1 [Tarceva, erlotinib] | overcomes that resistance | Increased efficacy | synergized in decreasing phospho-ERK levels |  | suppression of proliferation, combination effect (CX-1 cells): good synergy |
| Cc1ccc(NC(=O)c2cccc(C(C)(C)C#N)c2)cc1Nc1ccc2ncn(C)c(=O)c2c1 [AZ-628, 3-(2-cyanopropan-2-yl)-N-(4-methyl-3-(3-methyl-4-oxo-3,4-dihydroquinazolin-6-ylamino)phenyl)benzamide] |  |  |  |  | Venus-tagged C-RAF membrane translocation [3]: co-localizes with CFP-KRAS on the plasma membrane |
| CCCS(=O)(=O)Nc1ccc(F)c(C(=O)c2c[nH]c3ncc(Cl)cc23)c1F [PLX4720, N-[3-[(5-chloro-1H-pyrrolo[2,3-b]pyridin-3-yl)carbonyl]-2,4-difluorophenyl]-1-propanesulfonamide] |  |  |  | BRAF V600E selective |  |
| O=C(NOC[C@H](O)CO)c1ccc(F)c(F)c1Nc1ccc(I)cc1F [PD-0325901] | overcomes that resistance |  |  |  |  |
| CCCS(=O)(=O)Nc1ccc(F)c(C(=O)Nc2cnc3[nH]nc(OC)c3c2)c1F [Raf inh a, 2,6-difluoro-N-(3-methoxy-1H-pyrazolo[3,4-b]pyridin-5-yl)-3-(propylsulfonamido)benzamide] |  | Increased efficacy | synergized in decreasing phospho-ERK levels | BRAF V600E selective |  |
